Test results published in patent US9150638B2, “Factor XII inhibitors for treating interstitial lung disease” (Justus-Liebig-Universität Giessen, priority 2010, dated 2015).

Key:
FXIIa = target: T1, FXIIa (Homo sapiens, UniProt P00748); conditions: cited from earlier work
T1 sequence (P00748 373-615 limits assumed): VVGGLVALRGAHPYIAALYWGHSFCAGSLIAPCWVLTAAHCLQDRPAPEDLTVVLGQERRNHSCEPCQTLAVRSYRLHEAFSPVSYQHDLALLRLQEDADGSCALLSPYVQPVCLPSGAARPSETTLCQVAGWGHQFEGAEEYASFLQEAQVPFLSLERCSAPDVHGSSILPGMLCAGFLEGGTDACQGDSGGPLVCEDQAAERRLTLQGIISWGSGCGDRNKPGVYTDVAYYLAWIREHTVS
T1 sequence (P00748 20-372 partner limits assumed): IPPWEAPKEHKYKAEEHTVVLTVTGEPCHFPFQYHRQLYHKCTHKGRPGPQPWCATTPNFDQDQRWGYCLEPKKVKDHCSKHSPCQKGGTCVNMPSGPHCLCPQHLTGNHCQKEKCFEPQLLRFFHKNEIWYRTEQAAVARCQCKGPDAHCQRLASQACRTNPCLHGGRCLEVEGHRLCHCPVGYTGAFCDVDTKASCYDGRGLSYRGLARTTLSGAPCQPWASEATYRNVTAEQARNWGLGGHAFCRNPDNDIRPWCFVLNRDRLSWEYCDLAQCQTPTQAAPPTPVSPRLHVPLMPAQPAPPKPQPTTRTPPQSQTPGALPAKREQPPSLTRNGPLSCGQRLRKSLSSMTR

FXII = assay: TGF-β1-induced FXII expression in HLF; type: cell-based, human; conditions: HLF treated with inhibitor 1 h prior to TGF-β1 for 48 h
Description: Human lung specimens of the pulmonary parenchyma and mouse lungs were chopped into <1 mm^3 pieces. The minced pieces were washed twice with PBS and then plated in 100-mm dishes (Greiner-bio-one, Frickenhausen, Germany). The specimens were cultured with Dulbecco's modified Eagle's medium (DMEM; Invitrogen, Karlsruhe, Germany) supplemented with 10% fetal calf serum (FCS; HyClone, South Logan, UT), and 1% penicillin/streptomycin (Invitrogen) in humidified atmosphere of 5% CO2 at 37° C. Purity of isolated fibroblasts was verified by positive staining for vimentin, fibronectin and collagen IV. All experiments were carried out with lung fibroblasts from passages 3-4. The mouse NIH3T3 fibroblasts were cultured in DMEM supplemented with 10% FCS, and 1% penicillin/streptomycin in humidified atmosphere of 5% CO2 at 37° C.
(§1) Proteins separated on SDS polyacrylamide gel were transferred to a PVDF membrane (Amersham Biosciences, Freiburg, Germany) using wet transfer technique in transfer buffer (25 mM Tris, 192 mM Glycine, 20% (v/v) Methanol) for 1 h at 100V. After blocking with 5% non-fat dry milk in tris-buffered saline (TBS; 25 mM Tris-Cl, 150 mM NaCl, pH 7.5) containing 0.1% (v/v) Tween 20 (TBS-T), the membranes were incubated at 4° C. overnight with appropriate primary antibody diluted in 1% BSA in TBS-T. After 1 h incubation with peroxidase-labelled secondary antibody (all from Dako, Gostrup, Denmark) proteins were detected using ECL Plus Kit (Amersham Biosciences, Freiburg, Germany). To determine the amounts of protein loaded on the gel, blots were in 1 hour (stripping buffer: 100 mM Glycine, 1% HCl) and reprobed using an anti-β-actin or appropriate anti-pan antibody.
Pre-designed, commercially available siRNA sequences directed against human Smad 3 (Dharmacon, Chicago, Ill.), human JNK1 (Abnova, Heidelberg, Germany), and an universal negative-control siRNA (Ambion, Austin, Tex.) were employed. Cells were treated with siRNA (250 nM each) using the X-treme Gene siRNA Transfection Reagent (Roche). The siRNA-mediated downregulation of the target genes was assessed 72 h after transfection by Western blotting.

Smad 3 [1] = assay: Western blot of Smad 3 phosphorylation in TGF-β1 treated HLF; type: cell-based, human
Description: as §1

JNK = assay: Western blot of JNK activity in TGF-β1 treated HLF; type: cell-based, human
Smad 3 [2] = assay: TGF-β1 driven translocation of phospho-Smad 3 to the nucleus in HLF; type: cell-based, human
Description: as §1, with “antibody. […]” for “antibody.”
[…]. […] After boiling, the DNA-bound proteins were analyzed by Western blot using rabbit anti-phospho Smad 3 antibody (Cell Signaling). […]

Smad 3-SBE-272 = assay: ChIP of the Smad 3-SBE-272 complex; type: cell-based, human
Description: ChIP was performed using Chromatin Immunoprecipitation Assay Kit from Millipore (Schwalbach, Germany) according to manufacturer's instruction. […] The cross-linked chromatin was then prepared and sonicated to an average size of 500-800 bp. The DNA fragments were immunoprecipitated with rabbit anti-Smad 3 antibody (Cell Signaling) or IgG isotype control overnight at 4° C. After reversal of cross-linking, the immunoprecipitated chromatin was amplified by PCR using following primers: human FXII-299 bp forward: [NT] ID NO:25); human FXII-299 bp reverse: [NT] ID NO:26).

FXII promoter = FXII promoter luciferase assay in NIH3T3 cells; conditions: pGL3-299 construct; inhibitor 1 h prior to 10 ng/ml TGF-β1

Row | Compound | prolonging activated partial thromboplastin time (FXIIa) | FXII expression in response to TGF-β1 (Western blot) (FXII) | Smad 3 phosphorylation in response to TGF-β1 (Smad 3 [1]) | JNK activity / JNK1 phosphorylation in response to TGF-β1 (JNK) | TGF-β1-induced Smad 3 translocation to the nucleus (Smad 3 [2]; HLF pretreated with inhibitor, TGF-β1 1 h) | accumulation of Smad 3 in the nucleus, inhibitor alone (Smad 3 [2]; HLF, without TGF-β1, data not shown) | TGF-β1 induced Smad 3-DNA complex formation (ChIP) (Smad 3-SBE-272; HLF pretreated with inhibitor 1 h prior to TGF-β1) | interaction of Smad3 with DNA, inhibitor alone (Smad 3-SBE-272; without TGF-β1, data not shown) | TGF-β1 driven luciferase activity (FXII promoter)
1 | Infestin-4: Kazal-type serine protease inhibitor domain 4 from Triatoma infestans, FXIIa inhibitor (SEQ ID NO: 33) (EVRNPCACFRNYVPVCGSDGKTYGNPCMLNCAAQTKVPGLKLVHEGRC; Triatoma infestans) | approximately three-fold |  |  |  |  |  |  |  | 
2 | NC(=O)c1ccc(-c2nc(-c3ccc4c(c3)OCO4)c(-c3ccccn3)[nH]2)cc1 [SB431542] |  | reduction of FXII expression | attenuated | attenuated | completely blocks | did not affect | completely abolished | did not affect | strongly reduced
